{
  "source": "paper PMC9078697",
  "about": "“Discovery and preliminary SAR of 14-aryloxy-andrographolide derivatives as antibacterial agents with immunosuppressant activity” (RSC Advances, 2018)",
  "assay_type_in_all_cases": "cell-based",
  "key": {"E. faecalis": {"tested_on": "E. faecalis", "test": "Bacteriostatic screening (growth, OD630) against E. faecalis", "details": "for IC50: 24 h, IC50 generated when inhibition at 250 μM was higher than 80%", "description": "(§1) The strategy in this study was to submit these synthesized compounds to a preliminary screening test against E. coli, S. aureus and E. faecalis (ciprofloxacin was used as a reference compound; see Table 1). […] The tested compound or ciprofloxacin (positive drug) was dissolved in DMSO and diluted with LB liquid medium into a stock solution containing 20% DMSO before use; the stock solution of the carrier was 20% DMSO in LB liquid medium. All the experiments, including blank controls, were performed in triplicate. Bacteriostatic screening was performed by applying a modified protocol of the National Committee on Clinical Laboratory Standards (NCCLS).[29] Briefly, E. coli, S. aureus and E. faecalis cells (American Type Culture Collection, ATCC) were grown in LB plate medium for one passage, then seeded in LB liquid medium and cultured at 37 °C for 12 h. After being diluted 1000 times, 190 μL diluted cells were aliquoted to 96-well plates; then, 10 μL stock solution of carrier or a gradient amount of the tested compound or the positive compound, ciprofloxacin, were added; the final concentration of DMSO was 1% in all wells. The blank controls contained 1% DMSO and LB medium but no bacterial cells."}, "S. aureus": {"tested_on": "S. aureus", "test": "Bacteriostatic screening (growth, OD630) against S. aureus", "details": "for inhibition rate SA (symbol /): at 250 μM of tested compound", "description": "as §1"}, "E. coli": {"tested_on": "E. coli", "test": "Bacteriostatic screening (growth, OD630) against E. coli", "details": "for inhibition rate EC (symbol /): at 250 μM of tested compound", "description": "as §1"}, "[1]": {"details": "at 250 μM of the tested compound"}, "[2]": {"details": "at 250 μM of the tested compound, 250 µM"}},
  "data": [
    {"compound": "C=C1CC[C@H]2[C@@](C)(CCC(=O)[C@@]2(C)CO[Si](C)(C)C(C)(C)C)[C@@H]1C/C=C1/C(=O)OC[C@@H]1Oc1cccc2cccnc12", "note": "[8b2, (14β)-(quinolyl-8′-oxy)-3-keto-19-(t-butyldimethylsilyloxy)andrographolide]", "values": [
      {"measurement": "inhibition at 250 µM", "setting": "E. faecalis; Enterococcus faecalis, at 250 μM of the tested compound, read-out: inhibition rate (%) EF", "value": 71, "unit": "%"},
      {"measurement": "inhibition at 250 µM", "setting": "S. aureus; Staphylococcus aureus, at 250 μM of the tested compound, read-out: inhibition rate (%) SA", "value": 28, "unit": "%"},
      {"measurement": "inhibition at 250 µM", "setting": "E. coli; Escherichia coli, at 250 μM of the tested compound, read-out: inhibition rate (%) EC", "value": 25, "unit": "%"}
    ]},
    {"compound": "C=C1CCC2C3(C)COC(C)(C)OC3CCC2(C)C1CC=C1C(=O)OCC1Oc1ccnc2ccccc12", "note": "(stereo not drawn) [5a16, (14α)-(Quinolyl-4′-oxy)-3,19-acetonylidene andrographolide]", "values": [
      {"measurement": "IC50", "setting": "E. faecalis", "value": "16.9 ± 5.9", "unit": "µM"},
      {"measurement": "inhibition rate (%) SA", "setting": "S. aureus; [1]", "value": "(14) %"},
      {"measurement": "inhibition rate EC (symbol /)", "setting": "E. coli", "value": "/ (“/”represents no inhibition or lower than 10% inhibition rate at 250 μM of tested compound)"}
    ]},
    {"compound": "C=C1CCC2C(C)(CO)C(O)CCC2(C)C1CC=C1C(=O)OCC1Oc1ccc([N+](=O)[O-])cc1OC", "note": "(stereo not drawn) [6a3, (14α)-(2′-Methoxy-4′-nitro)phenoxy-andrographolide]", "values": [
      {"measurement": "IC50", "setting": "E. faecalis", "value": "113 ± 14.3", "unit": "µM"},
      {"measurement": "inhibition rate (%) SA", "setting": "S. aureus; [2]", "value": "(17) %"},
      {"measurement": "inhibition rate (%) EC", "setting": "E. coli; [2]", "value": "(31) %"}
    ]},
    {"compound": "C=C1CCC2C3(C)COC(C)(C)OC3CCC2(C)C1CC=C1C(=O)OCC1Oc1ccc([N+](=O)[O-])cc1OC", "note": "(stereo not drawn) [5a3, (14α)-(2′-Methoxy-4′-nitro)phenoxy-3,19-acetonylidene andrographolide]", "values": [
      {"measurement": "inhibition rate (%) EF", "setting": "E. faecalis; [2]", "value": "(60) %"},
      {"measurement": "inhibition rate (%) SA", "setting": "S. aureus; [2]", "value": "(18) %"},
      {"measurement": "inhibition rate (%) EC", "setting": "E. coli; [1]", "value": "(21) %"}
    ]},
    {"compound": "C=C1CCC2C(C)(CO)C(O)CCC2(C)C1CC=C1C(=O)OCC1Oc1ccc([N+](=O)[O-])c(F)c1", "note": "(stereo not drawn) [6a4, (14α)-(3′-Fluoro-4′-nitro)phenoxy-andrographolide]", "values": [
      {"measurement": "inhibition rate (%) EF", "setting": "E. faecalis; [1]", "value": "(44) %"},
      {"measurement": "inhibition rate SA (symbol /)", "setting": "S. aureus", "value": "/ (“/”represents no inhibition or lower than 10% inhibition rate at 250 μM of tested compound)"},
      {"measurement": "inhibition rate EC (symbol /)", "setting": "E. coli", "value": "/ (“/”represents no inhibition or lower than 10% inhibition rate at 250 μM of tested compound)"}
    ]},
    {"compound": "C=C1CCC2C(C)(CO)C(O)CCC2(C)C1CC=C1C(=O)OCC1Oc1ccccc1[N+](=O)[O-]", "note": "(stereo not drawn) [6b6, (14β)-(2′-Nitro)phenoxy-andrographolide]", "values": [
      {"measurement": "IC50", "setting": "E. faecalis", "value": "15.9 ± 9", "unit": "µM"},
      {"measurement": "inhibition rate (%) SA", "setting": "S. aureus; [1]", "value": "(12) %"},
      {"measurement": "inhibition rate (%) EC", "setting": "E. coli; [1]", "value": "(28) %"}
    ]},
    {"compound": "C=C1CCC2C3(C)COC(C)(C)OC3CCC2(C)C1CC=C1C(=O)OCC1Oc1cccnc1[N+](=O)[O-]", "note": "(stereo not drawn) [5a15, (14α)-(2′-Nitro-pyridinyl-3′-oxy)-3,19-acetonylidene andrographolide]", "values": [
      {"measurement": "IC50", "setting": "E. faecalis", "value": "25.5 ± 1.5", "unit": "µM"},
      {"measurement": "inhibition rate (%) SA", "setting": "S. aureus; [2]", "value": "(11) %"},
      {"measurement": "inhibition rate (%) EC", "setting": "E. coli; [1]", "value": "(13) %"}
    ]},
    {"compound": "C=C1CCC2C(C)(CO)C(O)CCC2(C)C1CC=C1C(=O)OCC1Oc1ccc(C(=O)OCC)cc1", "note": "(stereo not drawn) [6a9, (14α)-(4′-Carboxyethyl ester)phenoxy-andrographolide]", "values": [
      {"measurement": "IC50", "setting": "E. faecalis", "value": "38.3 ± 5.9", "unit": "µM"},
      {"measurement": "inhibition rate SA (symbol /)", "setting": "S. aureus", "value": "/ (“/”represents no inhibition or lower than 10% inhibition rate at 250 μM of tested compound)"},
      {"measurement": "inhibition rate EC (symbol /)", "setting": "E. coli", "value": "/ (“/”represents no inhibition or lower than 10% inhibition rate at 250 μM of tested compound)"}
    ]},
    {"compound": "C=C1CCC2C3(C)COC(C)(C)OC3CCC2(C)C1CC=C1C(=O)OCC1Oc1cccc([N+](=O)[O-])c1", "note": "(stereo not drawn) [5b7, (14β)-(3′-Nitro)phenoxy-3,19-acetonylidene andrographolide]", "values": [
      {"measurement": "inhibition rate EF (symbol /)", "setting": "E. faecalis; at 250 μM of tested compound", "value": "/ (“/”represents no inhibition or lower than 10% inhibition rate at 250 μM of tested compound)"},
      {"measurement": "inhibition rate SA (symbol /)", "setting": "S. aureus", "value": "/ (“/”represents no inhibition or lower than 10% inhibition rate at 250 μM of tested compound)"},
      {"measurement": "inhibition rate EC (symbol /)", "setting": "E. coli", "value": "/ (“/”represents no inhibition or lower than 10% inhibition rate at 250 μM of tested compound)"}
    ]},
    {"compound": "C=C1CCC2C(C)(CO)C(O)CCC2(C)C1CC=C1C(=O)OCC1Oc1ccc([N+](=O)[O-])cc1F", "note": "(stereo not drawn) [6b2, (14β)-(2′-Fluoro-4′-nitro)phenoxy-andrographolide]", "values": [
      {"measurement": "IC50", "setting": "E. faecalis", "value": "24.4 ± 3.2", "unit": "µM"},
      {"measurement": "inhibition rate (%) SA", "setting": "S. aureus; [2]", "value": "(25) %"},
      {"measurement": "inhibition rate (%) EC", "setting": "E. coli; [2]", "value": "(42) %"}
    ]}
  ]
}
